According to US20140296528A1, “4-ARYL-1-(BIARYLMETHYLENE) PIPERIDINE COMPOUNDS” (KING ABDULAZIZ CITY FOR SCIENCE AND TECHNOLOGY, priority 2013, published 2014):

System: not given
Conditions: not given

Structure (SMILES)	melting point [°C]
COc1ccc2cccc(C3CCN(Cc4ccc(-c5ccccc5)cc4)CC3)c2n1 [Compound 3a, 8-(1-(Biphenyl-4-ylmethyl)piperidin-4-yl)-2-methoxyquinoline]	84 to 85
COc1ccc2cccc(C3CCN(Cc4cncc(-c5ccccc5)c4)CC3)c2n1 [Compound 3c, 2-Methoxy-8-(1-((5-phenylpyridin-3-yl)methyl)piperidin-4-yl)quinoline]	135 to 137
COc1ccc2cccc(C3CCN(Cc4cncc(-c5ccc(F)cc5)c4)CC3)c2n1 [Compound 3d, 8-(1-((5-(4-Fluorophenyl)pyridin-3-yl)methyl)piperidin-4-yl)-2-methoxyquinoline]	156 to 158
COc1ccc2cccc(C3CCN(Cc4cccc(C5=CCCC5)c4)CC3)c2n1 [Compound 3e, 8-(1-(3-Cyclopentenylbenzyl)piperidin-4-yl)-2-methoxyquinoline]	125 to 126
O=c1ccc2cccc(C3CCN(Cc4ccc(-c5ccccc5)cc4)CC3)c2[nH]1 [Compound 4a, 8-(1-(Biphenyl-4-ylmethyl)piperidin-4-yl)quinolin-2(1H)-one]	146 to 148
O=c1ccc2cccc(C3CCN(Cc4ccc(-c5ccc(F)cc5)cc4)CC3)c2[nH]1 [Compound 4b, 8-(1-((4′-Fluorobiphenyl-4-yl)methyl)piperidin-4-yl)quinolin-2(1H)-one]	159 to 161
O=c1ccc2cccc(C3CCN(Cc4cncc(-c5ccccc5)c4)CC3)c2[nH]1 [Compound 4c, 8-(1-((5-Phenylpyridin-3-yl)methyl)piperidin-4-yl)quinolin-2(1H)-one]	158 to 160
O=c1ccc2cccc(C3CCN(Cc4cncc(-c5ccc(F)cc5)c4)CC3)c2[nH]1 [Compound 4d, 8-(1-((5-(4-Fluorophenyl)pyridin-3-yl)methyl)piperidin-4-yl)quinolin-2(1H)-one]	161 to 163
O=c1ccc2cccc(C3CCN(Cc4cccc(C5=CCCC5)c4)CC3)c2[nH]1 [Compound 4e, 8-(1-(3-Cyclopentenylbenzyl)piperidin-4-yl)quinolin-2(1H)-one]	123 to 125
O=c1ccc2cccc(C3CCN(Cc4cncc(C5=CCCC5)c4)CC3)c2[nH]1 [Compound 4f, 8-(1-((5-Cyclopentenylpyridin-3-yl)-methyl)piperidin-4-yl)quinolin-2(1H)-one]	133 to 135

Continued, values first:

melting point [°C]	Structure (SMILES)
116 to 118	O=C1CCc2cccc(C3CCN(Cc4ccc(-c5ccccc5)cc4)CC3)c2N1 [Compound 5a, 8-(1-(Biphenyl-4-ylmethyl)piperidin-4-yl)-3,4-dihydroquinolin-2(1H)-one]
132 to 134	O=C1CCc2cccc(C3CCN(Cc4ccc(-c5ccc(F)cc5)cc4)CC3)c2N1 [Compound 5b, 8-(1-((4′-Fluorobiphenyl-4-yl)methyl)piperidin-4-yl)-3,4-dihydroquinolin-2(1H)-one]
136 to 138	O=C1CCc2cccc(C3CCN(Cc4cncc(-c5ccc(F)cc5)c4)CC3)c2N1 [Compound 5d, 8-(1-((5-(4-Fluorophenyl)pyridin-3-yl)methyl)piperidin-4-yl)-3,4-dihydroquinolin-2(1H)-one]
115 to 117	O=C1CCc2cccc(C3CCN(Cc4cccc(C5=CCCC5)c4)CC3)c2N1 [Compound 5e, 8-(1-(3-Cyclopentenylbenzyl)piperidin-4-yl)-3,4-dihydroquinolin-2(1H)-one]
123 to 125	O=C1CCc2cccc(C3CCN(Cc4cncc(C5=CCCC5)c4)CC3)c2N1 [Compound 5f, 8-(1-((5-cyclopentenylpyridin-3-yl)methyl)piperidin-4-yl)-3,4-dihydroquinolin-2(1H)-one]

System: phencyclidine-induced social interaction deficits
Conditions: background statement on prior-art compounds; cited from earlier work

Structure (SMILES)	oppose phencyclidine-induced social interaction deficits
Fc1ccc(-c2cncc(CN3CCN(c4cccc5c4OCCO5)CC3)c2)cc1 [adoprazine]	failure
O=c1[nH]c2cccc(N3CCN(Cc4cccc(-c5ccccc5)c4)CC3)c2o1 [bifeprunox]	failure
